In brackets after ≈: the same amount, converted by molar mass. Entries after “also recorded” stand apart in the source; their conditions may differ. Like-named read-outs stand apart in the source and are kept apart here. Ends that are not written are not given here. Peptide text beside a SMILES is read from it.
What was measured:
A. baumannii = test: Scanning electron microscopy of cell morphology; assay type: cell-based, Acinetobacter baumannii; details: 30 min treatment, peptide 1.6 or 3.125 µM as in Figure 3 legend
Description: A. baumannii and C. albicans were grown and treated the same way as for the membrane permeability assay. Cells were then fixed with 2.5% (v/v) glutaraldehyde in phosphate buffered saline (PBS, pH 7.4). 5 μl of the above bacterial and yeast suspensions were spotted on a silicon disk coated with 0.01% Poly-L-Lysine. The filters were washed twice with PBS and gradually dehydrated with ethanol series (30, 50, 70, 80%, and three times 100% ethanol, each for minimum 30 min). The samples were dried with a critical point dryer (K850: Quorum Technologies Ltd.), followed by 12 nm gold coating and observed under a JEOL JSM-7100F/LV scanning electron microscope.
FIGURE 3 Viability, membrane permeability and morphology of A. baumannii cells after NCR treatment (A–L) SYTO9/PI staining observed with confocal microscope, (M–X) Cell morphology observed with SEM. (A,M) untreated control, (B,N) CaNCR13, 3.125 µM, (C,O) CaNCR63, 3.125 µM, (D,P) CaNCR63_1-20, 3.125 µM, (E,Q) CaNCR63_15-34, 3.125 µM, (F,R) MsNCR443, 3.125 µM, (G,S) MsNCR463_16-35, 1.6 µM, (H,T) MsNCR463_17-30, 3.125 µM, (I,U) PsNCR349, 1.6 µM, (J,V) PsNCR349_26-50, 3.125 µM, (K,W) PsNCR349_31-50, 3.125 µM, (L,X) PsNCR352, 1.6 µM.

[1] = test system: Lambda DNA/HindIII marker; test: Gel retardation assay (DNA aggregation); assay type: binding; details: 100 ng DNA, 5 or 10 µM peptide in water, 30 min at room temperature, 1% agarose gel
Description: Interactions of peptides with DNA was visualized with gel retardation assay ([Hsu et al., 2005]). 100 ng Lambda DNA/HindIII marker (ThermoFisher Scientific) was incubated with 0, 5 or 10 µM synthetic NCRs or NCR derivatives in water for 30 min at room temperature and then loaded into 1% agarose gel. Electrophoresis of DNA fragments separated the mobile HindIII-digested DNA fragments while the aggregated DNA remained in the loading wells.
FIGURE 6 Aggregation of DNA by NCR peptides. Lambda HindIII digested DNA was incubated without (0) or with NCR peptides at 5 or 10 μM concentration.

[2] = test system: Acinetobacter baumannii (ATCC 17978); test: microbe, parasite or virus in culture; assay type: cell-based; details: ATCC 17978, 3 h, pH 7.4; read-out: MBC, minimal bactericidal concentration against A. baumannii
Source text: (§1) The following pathogenic bacterial strains were used: The Gram-positive Enterococcus faecalis (ATCC 29212), Staphylococcus aureus (HNCMO112011), Listeria monocytogenes (ATCC 19111) and the Gram-negative Pseudomonas aeruginosa (ATCC 27853), Escherichia coli (ATCC 8739), Salmonella enterica (ATCC 13076), Klebsiella pneumoniae (NCTC 13440), Acinetobacter baumannii (ATCC 17978) obtained from the ATCC (United States) and NCTC (National Collection of Type Cultures–England). For the antifungal experiment the Candida albicans W01 strain ([Ördögh et al., 2014]) was used. Antimicrobial activities of peptides against ∼10^7 log phase bacteria were tested in Potassium-Phosphate Buffer (PPB, pH 7.4) as described by [Jenei et al. (2020)] while anti-Candida assays were done according to [Szerencsés et al. (2021)]. The two-fold dilution series of peptides ranged from 25 μM to 0.125 μM, while that of the antibiotics ampicillin (Merck) and miconazole (Duchefa Biochemie) from […] to 0.1 μM. The lowest concentration of the antimicrobial agents, which completely eliminated viable bacteria or C. albicans were considered as the minimal bactericidal concentration (MBC) and minimal fungicidal concentration (MFC).
(§2) The minimal bactericidal concentrations (MBCs) were determined after 3 h of treatment of ∼10^7 log phase bacteria with 2-fold serial dilution of peptides from 25 µM to 0.8 µM. Only 25 of the 50 cationic M. truncatula peptides had activity at ≤25 µM (Supplementary Table S1). […] Three peptides were only active against two bacterial strains; NCR649 against L. monocytogenes and A. baumannii, NCR281 against L. monocytogenes and P. aeruginosa and NCR350 against A. baumannii and P. aeruginosa. […] None of the anionic NCR peptides affected the survival of the tested bacterial strains.

[3] = test system: Candida albicans W01 strain; test: microbe, parasite or virus in culture; assay type: cell-based; details: read-out: MFC, minimal fungicidal concentration against C. albicans
Source text: as §1

[4] = test system: Staphylococcus aureus (HNCMO112011); assay type: cell-based; details: HNCMO112011, 3 h
Method in brief: (§3)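 MBC read as lowest peptide concentration giving no viable bacteria; ~10^7 log-phase cells, PPB pH 7.4, 3 h treatment, 2-fold dilutions from 25 µM.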

[5] = test system: Salmonella enterica (ATCC 13076); assay type: cell-based; details: ATCC 13076, 3 h
Method in brief: as §3

[6] = test system: Escherichia coli (ATCC 8739); assay type: cell-based; details: ATCC 8739, 3 h
Method in brief: as §3

[7] = test system: Pseudomonas aeruginosa (ATCC 27853); assay type: cell-based; details: ATCC 27853, 3 h
Method in brief: as §3

[8] = test system: E. coli, S. enteritidis, P. aeruginosa, L. monocytogenes, S. aureus, E. faecalis, K. pneumoniae and A. baumannii; test: Antimicrobial activity assay, spectrum over the eight tested pathogenic bacteria; assay type: cell-based; details: 3 h treatment of ~10^7 log phase bacteria, peptides 25 to 0.8 µM; active = MBC ≤25 µM
Source text: as §1
We investigated the antimicrobial activity of 78 NCR peptides from M. truncatula and 12 NCRs from other IRLC legumes as well as their shorter derivatives against E. coli, S. enteritidis, P. aeruginosa, L. monocytogenes, S. aureus, E. faecalis, K. pneumoniae and A. baumannii (Supplementary Table S1). In the selection of the M. truncatula peptides, we considered their symbiotic expression levels but also their physicochemical properties. The antimicrobial activity of NCRs has so far been attributed to cationic peptides, with the exception of one anionic peptide. To investigate whether other anionic NCRs are antimicrobial, in addition to the cationic peptides, neutral and anionic NCRs were also included covering a broad range of peptides with different net charges (NC: from 7.8 to −10.2) and isoelectric points (pI: from 10.69 to 2.95). 50 peptides had positive net charge and pI > 7.0, while 28 peptides had negative net charge and pI < 7.0 (Supplementary Table S1A). Of the other legumes, only cationic NCR peptides were studied (Supplementary Table S1B).
as §2

[9] = test system: Enterococcus faecalis (ATCC 29212); assay type: cell-based
Method in brief: as §3

Row | Compound | Morphology of A. baumannii cells by SEM (A. baumannii) | Aggregation of HindIII-digested λ DNA (DNA retained in loading wells) [1] | MBC [2] [µM] | MFC ([3]; W01 strain) [µM] | MBC Staphylococcus aureus [4] [µM] | MBC Escherichia coli [6] [µM] | MBC Pseudomonas aeruginosa [7] [µM] | Antibacterial spectrum over the eight tested bacterial strains [8] | also measured
1 | CC[C@H](C)[C@H](NC(=O)[C@H](CCCCN)NC(=O)[C@H](CO)NC(=O)[C@H](CCCNC(=N)N)NC(=O)[C@@H]1CCCN1C(=O)[C@@H](N)CS)C(=O)N[C@@H](CCCCN)C(=O)N[C@@H](CC(=O)O)C(=O)N[C@@H](CS)C(=O)N[C@H](C(=O)N[C@@H](CCCCN)C(=O)NCC(=O)N[C@@H](Cc1ccc(O)cc1)C(=O)N[C@@H](CS)C(=O)N[C@@H](CCCNC(=N)N)C(=O)N[C@@H](CS)C(=O)N[C@H](C(=O)N[C@@H](CCCNC(=N)N)C(=O)N[C@@H](CCCCN)C(=O)N[C@@H](CCCCN)C(N)=O)C(C)C)C(C)C [CaNCR63_15-34] (H-CPRSKIKDCVKGYCRCVRKK-NH2; N-terminus assumed) | rough cell surface, lysis and flattening of the cells; also recorded: Filament-like structures | DNA remained in the wells | – | – | – | – | – | – | –
2 | CC(C)[C@H](NC(=O)CNC(=O)[C@H](CCCNC(=N)N)NC(=O)[C@H](CCCCN)NC(=O)[C@@H]1CCCN1C(=O)[C@@H](N)CCCCN)C(=O)N[C@@H](CC(N)=O)C(=O)N[C@@H](Cc1ccccc1)C(=O)N[C@@H](CCCNC(=N)N)C(=O)N[C@@H](CS)C(=O)N[C@@H](CCCNC(=N)N)C(=O)N[C@@H](CCCCN)C(=O)NCC(=O)N[C@@H](CCCCN)C(N)=O [MsNCR463_17-30] (H-KPKRGVNFRCRKGK-NH2) | – | – | 3.125 (≈ 5.23 µg/mL) | 3.125 (≈ 5.23 µg/mL) | – | – | – | – | –
3 | CC[C@H](C)[C@H](NC(=O)[C@H](CS)NC(=O)[C@H](CO)NC(=O)[C@H](CCCNC(=N)N)NC(=O)[C@H](CO)NC(=O)[C@H](Cc1ccccc1)NC(=O)[C@@H]1CCCN1C(=O)[C@H](CC(C)C)NC(=O)[C@H](Cc1ccc(O)cc1)NC(=O)[C@H](C)N)C(=O)N[C@@H](CO)C(=O)N[C@@H](CC(=O)O)C(=O)N[C@@H](CCCCN)C(=O)N[C@@H](CC(=O)O)C(=O)N[C@@H](CS)C(=O)N1CCC[C@H]1C(=O)N[C@@H](CCC(N)=O)C(=O)N[C@H](C(=O)N[C@@H](CCCCN)C(=O)N[C@@H](CC(N)=O)C(=O)N[C@@H](Cc1ccccc1)C(=O)N[C@@H](CO)C(=O)N[C@@H](C)C(=O)N[C@@H](CCCNC(=N)N)C(=O)N[C@@H](CS)C(=O)N[C@@H](CCCNC(=N)N)C(=O)N[C@@H](CCCCN)C(=O)NCC(=O)N[C@@H](Cc1ccc(O)cc1)C(=O)N[C@@H](CS)C(=O)N[C@@H](CCC(N)=O)C(=O)N[C@@H](Cc1ccccc1)C(=O)N[C@@H](CCCNC(=N)N)C(=O)N[C@H](C(=O)N[C@H](C(=O)N[C@@H](CCCNC(=N)N)C(=O)O)C(C)C)C(C)C)C(C)C [NCR471] (H-AYLPFSRSCISDKDCPQVKNFSARCRKGYCQFRVVR-OH; N-terminus assumed) | – | – | – | – | 12.5 (≈ 52.9 µg/mL) | 25 (≈ 106 µg/mL) | 3.125 (≈ 13.2 µg/mL) | effective against five or four strains | MBC Salmonella enterica [5]: 25 µM (≈ 106 µg/mL)
4 | CSCC[C@H](NC(=O)[C@H](CC(N)=O)NC(=O)[C@H](Cc1ccccc1)NC(=O)[C@@H](NC(=O)[C@H](CC(C)C)NC(=O)[C@H](CCCCN)NC(=O)[C@H](CCCCN)NC(=O)[C@H](CCCCN)NC(=O)[C@H](CCCCN)NC(=O)[C@H](CCCCN)NC(=O)[C@H](CC(C)C)NC(=O)[C@H](CCCCN)NC(=O)[C@H](CCCCN)NC(=O)[C@H](CCCCN)NC(=O)[C@H](Cc1c[nH]cn1)NC(=O)[C@H](CCCCN)NC(=O)[C@H](CCC(N)=O)NC(=O)[C@@H](NC(=O)[C@H](CS)NC(=O)[C@H](Cc1ccc(O)cc1)NC(=O)[C@H](CS)NC(=O)[C@@H](NC(=O)[C@H](CCCCN)NC(=O)[C@H](Cc1c[nH]c2ccccc12)NC(=O)[C@@H](N)C(C)C)[C@@H](C)O)C(C)C)[C@@H](C)O)C(N)=O [PsNCR349_26-50] (H-VWKTCYCVQKHKKKLKKKKKLTFNM-NH2; N-terminus assumed) | Filament-like structures | DNA remained in the wells | 3.125 (≈ 9.81 µg/mL) | – | – | – | – | – | MFC ([3]; C. albicans W01, two-fold dilution series, lowest concentration completely eliminating viable C. albicans): 3.125 µM (≈ 9.81 µg/mL)
5 | CSCC[C@H](NC(=O)[C@H](CC(N)=O)NC(=O)[C@H](Cc1ccccc1)NC(=O)[C@@H](NC(=O)[C@H](CC(C)C)NC(=O)[C@H](CCCCN)NC(=O)[C@H](CCCCN)NC(=O)[C@H](CCCCN)NC(=O)[C@H](CCCCN)NC(=O)[C@H](CCCCN)NC(=O)[C@H](CC(C)C)NC(=O)[C@H](CCCCN)NC(=O)[C@H](CCCCN)NC(=O)[C@H](CCCCN)NC(=O)[C@H](Cc1c[nH]cn1)NC(=O)[C@H](CCCCN)NC(=O)[C@H](CCC(N)=O)NC(=O)[C@@H](NC(=O)[C@H](CS)NC(=O)[C@@H](N)Cc1ccc(O)cc1)C(C)C)[C@@H](C)O)C(N)=O [PsNCR349_31-50] (H-YCVQKHKKKLKKKKKLTFNM-NH2) | – | – | 6.25 (≈ 15.8 µg/mL) | 1.6 (≈ 4.03 µg/mL) | – | – | – | – | –
6 | FIDCETVADCPTHWAYIYVCEKNKCRYHFKSGRVRPDHQKNRHNRV-OH (cysteines drawn unpaired) [NCR520] | – | – | – | – | 25 | 25 | 3.125 | effective against five or four strains | Ability to kill E. faecalis ([9]; 3 h, ~10^7 log phase bacteria, peptides ≤25 µM): able to kill; MBC Enterococcus faecalis ([9]; ATCC 29212, 3 h): 25 µM
